Laboratory results as given in the NIST ThermoML archive (doi:10.1007/s10765-011-0999-6).

Details: Gas, Capillary tube (Ostwald / Ubbelohde) method

[HH] [hydrogen]
Details	viscosity [mPa·s]
294.1 K, 34430 kPa	0.00964
294.52 K, 4680 kPa	0.00901
294.91 K, 10160 kPa	0.00911
295 K, 81640 kPa	0.01139
295.01 K, 52730 kPa	0.01021
295.02 K, 99320 kPa	0.01196
333.28 K, 4940 kPa	0.00983
333.3 K, 48480 kPa	0.01055
333.31 K, 69110 kPa	0.01122
333.31 K, 94920 kPa	0.01217
333.32 K, 9480 kPa	0.0099
400.1 K, 28190 kPa	0.01115
400.11 K, 4830 kPa	0.01109
400.11 K, 9190 kPa	0.01127
400.11 K, 49790 kPa	0.01163
400.12 K, 71210 kPa	0.01217

N#N [nitrogen]
Details	viscosity [mPa·s]
297.22 K, 31330 kPa	0.02799
297.23 K, 40300 kPa	0.03044
297.24 K, 50620 kPa	0.03457
297.25 K, 24520 kPa	0.02464
297.25 K, 85020 kPa	0.0474
297.26 K, 70280 kPa	0.04283
297.3 K, 570 kPa	0.01774
297.32 K, 2900 kPa	0.01836
297.32 K, 4960 kPa	0.01892
297.33 K, 9020 kPa	0.0199
297.45 K, 60740 kPa	0.03906
297.46 K, 95040 kPa	0.05291
333.14 K, 10530 kPa	0.02163
333.16 K, 15340 kPa	0.0222
333.22 K, 24490 kPa	0.02538
333.3 K, 34970 kPa	0.02945
333.42 K, 48850 kPa	0.03239
333.51 K, 74270 kPa	0.03968
333.59 K, 95150 kPa	0.04811
400.07 K, 7230 kPa	0.02297
400.07 K, 10740 kPa	0.02334
400.07 K, 15630 kPa	0.02427
400.07 K, 25910 kPa	0.02639
400.07 K, 35280 kPa	0.0284
400.07 K, 47240 kPa	0.03189
400.07 K, 65020 kPa	0.03573
400.07 K, 95070 kPa	0.04385
499.24 K, 30120 kPa	0.02951
499.24 K, 48890 kPa	0.03275
499.24 K, 69570 kPa	0.03658
499.24 K, 94610 kPa	0.04084
499.43 K, 10560 kPa	0.02699
